According to patent US20180049444A1, “XENORHABDUS SZENTIRMAII METABOLITES, TRANS-CINNAMIC ACID, AND ANALOGS THEREOF AS ENHANCERS OF FUNGICIDAL ACTIVITY” (priority 2016, published 2018):

Tests used:
[1] = system: Monilinia fructicola (brown rot); experiment: Synergy assessment of TCA and trans-Cinnamaldehyde with commercial fungicides, growth area on PDA after 4 days; format: cell-based; settings: FIG. 11
Excerpt: Following the procedures above and those in Hazir et al (2017b, J. Invertebrate Path. 145: 1-8), synergy assessments were implemented to compare trans-Cinnamic acid to an exemplary analog, trans-Cinnamaldehyde. The target phytopathogen was Monilinia fructicola (brown rot). Treatment effects were compared by measuring vegetative growth of the phytopathogens in vitro when they were exposed to the fungicidal agents applied alone or in combination. Solutions of the fungicidal treatments were incorporated into potato dextrose agar (PDA) to achieve the desired concentrations, and autoclaved. Prior to autoclaving the PDA, the prescribed volume of distilled water was reduced to allow addition of the fungicide solutions. Controls consisted of PDA without any amendment or PDA with acetone only (the solvent used for TCA). Trans-Cinnamic acid and trans-Cinnamaldehyde were applied alone or with commercial fungicides […]® (extract of Reynoutria sachalinensis) or Serenade® (Bacillus subtilis). After 4 days the area of M. fructicola growth was determined. […] [table]

[2] = system: Venturia effusa; experiment: Suppression of in vitro vegetative growth (colony area) on agar amended with 10% supernatant or TCA; format: cell-based; settings: V. effusa; FIG. 4; 7 days
Excerpt: (§1) Treatment effects were compared by measuring in vitro vegetative growth of the phytopathogens V. carpophila and V. effusa when exposed to the same bacterial exudates evaluated above in the germination study. Solutions of the fungicidal treatments were incorporated into PDA and autoclaved. Prior to autoclaving the PDA, the prescribed volume of distilled water was reduced to allow addition of treatment suspensions. Controls consisted of PDA without any amendment or PDA with acetone only (the solvent for TCA). The media were vortexed when cooled to 40-42° C. and poured to Petri dishes.
(§2) A 5 mm diameter mycelia plug from a fungal culture plate was transferred onto the center surface of each agar dish (Fang et al. 2011; Hazir et al. 2017a) and incubated at 25° C. Vegetative growth of the fungus was measured after 7 days. Growth was measured in two perpendicular directions to obtain the approximate area of the fungal mat.

[3] = system: Venturia carpophila; experiment: as above; format: cell-based; settings: V. carpophila; FIG. 5; 7 days
Excerpt: as §1, §2

[4] = system: V. effusa; experiment: Suppression of spore germination in potato dextrose broth with 10% bacterial supernatant or TCA; format: cell-based, Venturia effusa
Procedure: The spores of V. carpophila and V. effusa were used to determine the inhibitory effect of the bacterial supernatants on germination. Supernatants tested were from X. nematophila, X. cabanillasii, X. bovienii, X. szentirmaii, strain 17C+E, P. temperate, P. luminescens (VS) and P. luminescens (K-22). The conidia suspension (0.1 ml) of V. effusa or V. carpophila was added to 0.8 ml potato dextrose broth (PDB) in 2 ml eppendorf tubes containing 0.1 ml (10% v/v) bacterial supernatant. Controls were PDB alone and conidial suspension without supernatant. Because TCA derived from Photorhabdus spp. was identified as an active compound with significant antifungal activity (Bock et al. 2014), TCA was added (1.27 mg/ml) in all experiments for comparison as well. The stock solution of TCA (99% purity, Sigma, St. Louis, Mo.) was prepared with 12.7 g dissolved in 100 ml ethanol (96%). […] The tubes were incubated at 25° C. for 48 hours and the first 100 conidia were counted under the microscope (400×) to determine percentage spore germination (which was used to determine treatment effects). […] An inhibition rate was determined according to the formula: 100×[(the average percentage of spores germinated in the control−the average percentage of spores germinated in the treatment)/the average percentage of spores germinated in the control] […]

[5] = system: Glomerella cingulata; experiment: Suppression of in vitro vegetative growth (colony area) on agar amended with 10% supernatant or TCA; format: cell-based; settings: G. cingulata; FIG. 2; 7 days
[6] = system: Monilinia fructicola; experiment: as above; format: cell-based; settings: M. fructicola; FIG. 3; 7 days
[7] = system: Venturia carpophila; experiment: Suppression of spore germination in potato dextrose broth with 10% bacterial supernatant or TCA; format: cell-based; settings: V. carpophila
Procedure: The spores of V. carpophila and V. effusa were used to determine the inhibitory effect of the bacterial supernatants on germination. Supernatants tested were from X. nematophila, X. cabanillasii, X. bovienii, X. szentirmaii, strain 17C+E, P. temperate, P. luminescens (VS) and P. luminescens (K-22). The conidia suspension (0.1 ml) of V. effusa or V. carpophila was added to 0.8 ml potato dextrose broth (PDB) in 2 ml eppendorf tubes containing 0.1 ml (10% v/v) bacterial supernatant. Controls were PDB alone and conidial suspension without supernatant. Because TCA derived from Photorhabdus spp. was identified as an active compound with significant antifungal activity (Bock et al. 2014), TCA was added (1.27 mg/ml) in all experiments for comparison as well. The stock solution of TCA (99% purity, Sigma, St. Louis, Mo.) was prepared with 12.7 g dissolved in 100 ml ethanol (96%). Each treatment was replicated three times, and the experiment was repeated once on a different date. The tubes were incubated at 25° C. for 48 hours and the first 100 conidia were counted under the microscope (400×) to determine percentage spore germination (which was used to determine treatment effects). […] An inhibition rate was determined according to the formula: 100×[(the average percentage of spores germinated in the control−the average percentage of spores germinated in the treatment)/the average percentage of spores germinated in the control] (Fang et al. 2011). Analysis of Variance (ANOVA) (SAS V9.3, SAS Institute Inc., Cary, N.C.) was also applied to the data for V. carpophila.

Q: How did the “Interaction (level of M. fructicola suppression) when combined with commercial fungicides such as Regalia and Serenade” value [1] turn out when `O=C/C=C/c1ccccc1` [CA, trans-Cinnamaldehyde] was run?
A: The value was “synergistic”.

Q: For `O=C(O)/C=C/c1ccccc1` [TCA, trans-Cinnamic acid], which “suppression of vegetative growth compared among treatments” value [2] is on record?
A: Its value is “highest suppression”.

Q: What about the “suppression of vegetative growth compared among treatments” value [3] of the same molecule?
A: The value was “most suppression”.

Q: What about the “percentage spore germination compared among treatments” value [4] of the same molecule?
A: The value was “the least”.

Q: What about the inhibition at 1270 µg/mL ([4]; Venturia effusa, 10% v/v supernatant or TCA 1.27 mg/ml, 48 hours at 25° C., read-out: Inhibition rate of spore germination (%)) of the same molecule?
A: The inhibition at 1270 µg/mL was 76.7%.

Q: And the “suppression of vegetative growth compared among treatments” value [5]?
A: Its value is “most suppression”.

Q: And the “suppression of vegetative growth compared among treatments” value [6]?
A: The value was “greatest suppression”.

Q: What about the percentage spore germination ([7]; 10% supernatant or TCA 1.27 mg/ml, 48 hours) of the same molecule?
A: The percentage spore germination was 8.66%.

Q: What about the “level of suppression of spore germination compared among treatments” value ([7]; FIG. 1) of the same molecule?
A: Its value is “highest level of suppression”.

Q: What about the inhibition at 1270 µg/mL ([7]; Venturia carpophila, 10% v/v supernatant or TCA 1.27 mg/ml, 48 hours at 25° C., read-out: Inhibition rate of spore germination (%)) of the same molecule?
A: Its inhibition at 1270 µg/mL is 87.7%.

Q: And the “Interaction (level of M. fructicola suppression) when combined with commercial fungicides such as Regalia and Serenade” value [1]?
A: The value was “synergistic”.
